Values quoted from earlier work, collected in patent US8722114B2, “Compositions and methods for increasing human growth hormone levels” (Quality IP Holdings, LLC, priority 2012, dated 2014).

Key:
[1] = subcutaneous injection of 0.06 IU, GH deficient subjects

Row | Molecule | Elevation of serum hGH levels (hGH; 30 g, intravenous, in males) | Increase of hGH levels (hGH; intravenous infusion of 183 mg/kg body weight in females) | Mean levels of GH reached [1]
1 | N=C(N)NCCC[C@H](N)C(=O)O [arginine] | 8.6 fold | > 20 fold | –
2 | HGH: human growth hormone, injected subcutaneously in a cited study | – | – | 0.4 ng/mL
